This note sets out measurements from patent US7122548B2, “Triazolotriazine compounds and uses thereof” (Sugen, Inc., priority 2003, dated 2006).

This assay has as its target T1, c-MET (Homo sapiens, UniProt P08581).
T1 construct: Purified GST fusion protein containing the Met kinase domain, Sugen, Inc
Kind of assay: Met Transphosphorylation Assay (ELISA, poly(Glu,Tyr) 4:1 substrate). It is filed as biochemical. The conditions noted are these: purified GST fusion protein containing the Met kinase domain. How it is done: Met Transphosphorylation Assay
This assay is used to measure phosphotyrosine levels on a poly(glutamic acid:tyrosine (4:1)) substrate as a means for identifying agonists/antagonists of met transphosphorylation of the substrate.
6. Purified GST fusion protein containing the Met kinase domain, Sugen, Inc.
8. 10% aqueous (MilliQue H2O) DMSO.
10. 2× Kinase Dilution Buffer: for 100 ml, mix 10 mL 1M HEPES at pH 7.5 with 0.4 mL 5% BSA/PBS, 0.2 mL 0.1 M sodium orthovanadate and 1 mL 5M sodium chloride in 88.4 mL dH2O.
11. 4× ATP Reaction Mixture: for 10 mL, mix 0.4 mL 1 M manganese chloride and 0.02 mL 0.1 M ATP in 9.56 mL dH2O.
12. 4× Negative Controls Mixture: for 10 mL, mix 0.4 mL 1 M manganese chloride in 9.6 mL dH2O.
15. Antibody Dilution Buffer: for 100 mL, mix 10 mL 5% BSA/PBS, 0.5 mL 5% Carnation Instant Milk® in PBS and 0.1 mL 0.1 M sodium orthovanadate in 88.4 mL TBST.
16. Rabbit polyclonal antophosphotyrosine antibody, Sugen, Inc.
17. Goat anti-rabbit horseradish peroxidase conjugated antibody, Biosource, Inc.
18. ABTS Solution: for 1 L, mix 19.21 g citric acid, 35.49 g Na2HPO4 and 500 mg ABTS with sufficient dH2O to make 1 L.
19. ABTS/H2O2: mix 15 mL ABST solution with 2pL H2O2 five minutes before use.
1. Coat ELISA plates with 2 μg Poly(Glu—Tyr) in 100 μL PBS, store overnight at 4° C.
2. Block plate with 150 μL of 5% BSA/PBS for 60 min.
3. Wash plate twice with PBS, once with 50 mM Hepes buffer pH 7.4.
4. Add 50 μl of the diluted kinase to all wells. (Purified kinase is diluted with Kinase Dilution Buffer. Final concentration should be 10 ng/well.)
5. Add 25 μL of the test compound (in 4% DMSO) or DMSO alone (4% in dH2O) for controls to plate.
6. Incubate the kinase/compound mixture for 15 minutes.
7. Add 25 μL of 40 mM MnCl2 to the negative control wells.
8. Add 25 μL ATP/MnCl2 mixture to the all other wells (except the negative controls). Incubate for 5 min.
9. Add 25 μL 500 mM EDTA to stop reaction.
10. Wash plate 3× with TBST.
11. Add 100 μL rabbit polyclonal anti-Ptyr diluted 1:10,000 in Antibody Dilution Buffer to each well. Incubate, with shaking, at room temperature for one hour.
12. Wash plate 3× with TBST.
13. […] Add 100 μL per well and incubate at room temperature, with shaking, for one hour.
14. Wash plate 1× with PBS.
15. Add 100 μl of ABTS/H2O2 solution to each well.
16. If necessary, stop the development reaction with the addition of 100 μl of 0.2M HCl per well.
Met Transphosphorylation Assay Results
(In an ELISA, binding on a coated surface is turned into a signal by an enzyme label.)

T1 sequence (P08581 1078-1345 limits assumed): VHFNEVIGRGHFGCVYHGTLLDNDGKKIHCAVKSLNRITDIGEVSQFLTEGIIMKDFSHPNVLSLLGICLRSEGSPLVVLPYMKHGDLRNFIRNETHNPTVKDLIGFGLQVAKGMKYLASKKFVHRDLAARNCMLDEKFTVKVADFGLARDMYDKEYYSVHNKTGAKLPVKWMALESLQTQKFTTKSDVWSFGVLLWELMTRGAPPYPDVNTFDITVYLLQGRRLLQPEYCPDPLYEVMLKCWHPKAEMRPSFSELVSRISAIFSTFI

`Oc1ccc(Cc2nnc3ncc(-c4cccs4)nn23)cc1` [Example 2, 4-(6-Thiophen-2-yl-[1,2,4]triazolo[4,3-b][1,2,4]triazin-3-ylmethyl)-phenol] displayed an IC50 of 4 nM. As for `Fc1ccc(Cc2nnc3ncc(-c4ccccc4)nn23)cc1` [Example 4, 3-(4-Fluoro-benzyl)-6-phenyl-[1,2,4]triazolo[4,3-b][1,2,4]triazine], inhibition was half-maximal at 50 nM (IC50).

On to `Fc1ccc(Cc2nnc3ncc(-c4cccs4)nn23)cc1` [Example 5, 3-(4-Fluoro-benzyl)-6-thiophen-2-yl-[1,2,4]triazolo[4,3-b][1,2,4]triazine], for which the half-inhibitory concentration (IC50) came to 13 nM. On to `Fc1ccc(Cc2nnc3ncc(-c4ccc(Br)cc4)nn23)cc1` [Example 6, 6-(4-Bromo-phenyl)-3-(4-fluoro-benzyl)-[1,2,4]triazolo[4,3-b][1,2,4]triazine], for which the IC50 came out at 45 nM.

In turn, `Oc1ccc(Cc2nnc3nccnn23)cc1` [Example 7, 4-[1,2,4]Triazolo[4,3-b][1,2,4]triazin-3-ylmethyl-phenol] had an IC50 of 56 nM. For `Cc1nc2nnc(Cc3ccc(O)cc3)n2nc1C` [Example 8, 4-(6,7-Dimethyl-[1,2,4]triazolo[4,3-b][1,2,4]triazin-3-ylmethyl)-phenol] the value was greater than 20000 nM; for `Cc1nn2c(Cc3ccc(O)cc3)nnc2nc1N` [Example 9, 4-(7-Amino-6-methyl-[1,2,4]triazolo[4,3-b][1,2,4]triazin-3-ylmethyl)-phenol], 830 nM.

Usually IC50 stands for the concentration that gives 50% inhibition. Read a high IC50 as lower potency.
